According to patent US20110217324A1, “INHIBITORS OF ANTIGEN PRESENTATION BY MHC CLASS II MOLECULES AND METHODS OF USE THEREOF” (priority 2007, published 2011):
Numbered stars: 1 amine (or outer) side, 2 acyl side, 3 side chain; on linkers, the order of the positions; unused ones are H or OH. Square brackets hold non-standard residues; d marks the D form. Peptide text beside a SMILES is read from it. * marks the point of attachment. Phe(3,4-Cl2) = N[C@@H](Cc1ccc(Cl)c(Cl)c1)C(=O)O; X1 = O=C(C(Cc1ccc2[nH]c3ccccc3c2c1)N[*:1])[*:2]; X2 = O=C([C@H](Cc1cccc2[nH]cnc12)N[*:1])[*:2]; X7 = O=C([C@H](Cc1cccc2[nH]ncc12)N[*:1])[*:2]; Trp(1-Me) = Cn1cc(C[C@H](N)C(=O)O)c2ccccc21; X5 = O=C(C(Cc1cccc2[nH]ccc12)N[*:1])[*:2]; Oic = O=C(O)[C@@H]1C[C@@H]2CCCC[C@@H]2N1; Phe(4-F) = N[C@@H](Cc1ccc(F)cc1)C(=O)O; Bta = N[C@@H](Cc1csc2ccccc12)C(=O)O; Gly(cPent) = N[C@H](C(=O)O)C1CCCC1; Igl = N[C@H](C(=O)O)C1Cc2ccccc2C1; hCit = NC(=O)NCCCC[C@H](N)C(=O)O; Tic = O=C(O)[C@@H]1Cc2ccccc2CN1; Cit = NC(=O)NCCC[C@H](N)C(=O)O; Chg = N[C@H](C(=O)O)C1CCCCC1; X3 = c1cc2cc(CCN*)ccc2[nH]1; X4 = c1cc(CCN*)c2cc[nH]c2c1; X6 = c1ccc2[nH]c(CCN*)cc2c1; Pip = O=C(O)[C@@H]1CCCCN1; Morpholide = C1CN(*)CCO1; Abu = CC[C@H](N)C(=O)O; βAla = NCCC(=O)O; Sar = CNCC(=O)O

Target: T1, MHC DR2 (DRB1*1501/DRA*0101) (Homo sapiens, UniProt P01903+P01911)
T1 construct: endogenous in cells; host or cells: EBV homozygous (B lymphoblastoid) cell lines
Assay: HLA II Binding Assay (competition with biotinylated reference peptide)
Conditions: purified HLA-DR, biotinylated reference compound for DRB1*1501, 37° C. 24 h to 72 h; read-out: Inhibition of peptide binding IC50 (against MHC DR2 (DRB1*1501/DRA*0101))
Method: EBV homozygous cell lines are used as sources of human HLA class II molecules. […] The supernatant from lysed cells after centrifugation (100,000 g for 1 h) is applied to Sepharose 4B and protein A-Sepharose 4B columns and then to the specific antibody column. […] Fractions are immediately neutralized to pH 7 with 2 mM Tris-HCl (pH 6.8) and extensively dialyzed against 1 mM n-dodecyl β-D-maltoside, 150 mM NaCl, 10 mM phosphate (pH 7) buffer.
Samples (100 μl per well) are incubated in 96-wells polypropylene plates at 37° C. for 24 h to 72 h. After neutralization with 50 μl of 450 mM Tris HCl pH 7.5, 0.003% thimerosal, 0.3% BSA, 1 mM n-dodecyl β-D-maltoside buffer, samples are applied to 96-well maxisorp ELISA plates previously coated with 10 μg/ml L243 Mab and saturated with 100 mM Tris HCl pH=7.5, 0.3% BSA, and 0.003% thimerosal buffer. Samples are allowed to bind to the antibody-coated plates for 2 h at room temperature. Bound biotinylated compound is detected by incubating streptavidin-alkaline phosphatase conjugate, and after washings, by the addition of 4-methylumbelliferyl phosphate substrate. […] Maximal binding is determined by incubating the biotinylated peptide with the MHC class II molecule in the absence of competitor. Binding specificity is assessed by adding an excess of non-biotinylated peptide.

Row | Molecule | IC50 [µM]
1 | CC(=O)N[C@H](C(=O)N[C@H](C(=O)N[C@@H](CCCNC(=N)N)C(=O)N1Cc2ccccc2C[C@H]1C(=O)N[C@@H](Cc1ccc(F)cc1)C(N)=O)C1CCCCC1)C(C)C [AcV(Chg)R(Tic)(4′-F Phe)] (Ac-V[Chg]R[Tic][Phe(4-F)]-NH2) | 0.001 to 0.01
2 | CC(=O)N[C@H](C(=O)N[C@H](C(=O)N[C@@H](CCCNC(=N)N)C(=O)N1Cc2ccccc2C[C@H]1C(=O)N[C@@H](Cc1ccccc1)C(=O)N1CCOCC1)C1Cc2ccccc2C1)C(C)C [AcV(Indgly)R(Tic)F-CO(morpholine)] (Ac-V[Igl]R[Tic]F-Morpholide) | 0.01 to 0.1
3 | CC(=O)N[C@H](C(=O)N[C@H](C(=O)N[C@@H](CCCNC(=N)N)C(=O)N1Cc2ccccc2C[C@H]1C(=O)N[C@@H](Cc1cccc2[nH]ncc12)C(N)=O)C1CCCCC1)C(C)C [AcV(Chg)R(Tic)(4-Indazole)] (Ac-V[Chg]R[Tic][X7]-NH2) | 0.001 to 0.01
4 | CC(=O)N[C@H](C(=O)N[C@H](C(=O)N[C@@H](CCCCNC(N)=O)C(=O)N1Cc2ccccc2C[C@H]1C(=O)N[C@@H](Cc1ccccc1)C(N)=O)C1CCCCC1)C(C)C [AcV(Chg)(homo Cit)(Tic)F] (Ac-V[Chg][hCit][Tic]F-NH2) | 0.001 to 0.01
5 | CC(C)[C@H](NC(=O)CCN)C(=O)N[C@H](C(=O)N[C@@H](Cc1ccccc1)C(=O)N[C@@H](Cc1ccccc1)C(=O)N[C@@H](Cc1ccccc1)C(N)=O)C1CCCCC1 [(NH2-Beta Ala)V(Chg)FFF] (H-[βAla]V[Chg]FFF-NH2) | 0.1 to 1
6 | CC(=O)N[C@H](C(=O)N[C@@H](CCCNC(=N)N)C(=O)N1Cc2ccccc2C[C@H]1C(=O)N[C@@H](Cc1ccccc1)C(=O)N1CCCC[C@H]1C(=O)O)C1CCCC1 [Ac(Cpg)R(Tic)F(homo Pro)COOH] (Ac-[Gly(cPent)]R[Tic]F[Pip]-OH) | 0.01 to 0.1
7 | CC(=O)N[C@H](C(=O)N[C@H](C(=O)N[C@@H](CCCNC(=N)N)C(=O)N1Cc2ccccc2C[C@H]1C(=O)NCCc1ccc2[nH]ccc2c1)C1CCCCC1)C(C)C [AcV(Chg)R(Tic)(5-ethylaminoindole)] (Ac-V[Chg]R[Tic]-X3) | 0.1 to 1
8 | CC(=O)N[C@H](C(=O)N[C@H](C(=O)N[C@@H](CCCNC(=N)N)C(=O)N1Cc2ccccc2C[C@H]1C(=O)NC(Cc1cccc2[nH]ccc12)C(N)=O)C1CCCCC1)C(C)C (some centres unmarked) [AcV(Chg)R(Tic)-(4′-Indolyl Ala)] (Ac-V[Chg]R[Tic][X5]-NH2) | 0.001 to 0.01
9 | CC(=O)N[C@H](C(=O)N[C@H](C(=O)N[C@@H](CCCNC(=N)N)C(=O)N1Cc2ccccc2C[C@H]1C(=O)N[C@@H](Cc1ccccc1)C(N)=O)C1CCCC1)C(C)C [AcV(Cpg)R(Tic)F] (Ac-V[Gly(cPent)]R[Tic]F-NH2) | 0.001 to 0.01
10 | CC(=O)N[C@H](C(=O)N[C@H](C(=O)N[C@@H](CCCNC(=N)N)C(=O)N1Cc2ccccc2C[C@H]1C(=O)NCCc1cccc2[nH]ccc12)C1CCCCC1)C(C)C [AcV(Chg)R(Tic)(4-ethylaminoindole)] (Ac-V[Chg]R[Tic]-X4) | 0.1 to 1
11 | CC(=O)N[C@H](C(=O)N[C@@H](CCCNC(=N)N)C(=O)N1Cc2ccccc2C[C@H]1C(=O)N[C@@H](Cc1c[nH]c2ccccc12)C(N)=O)C1CCCCC1 [Ac(Chg)R(Tic)(Trp)] (Ac-[Chg]R[Tic]W-NH2) | 0.01 to 0.1
12 | CC(=O)N[C@H](C(=O)N[C@H](C(=O)N[C@@H](CCCNC(=N)N)C(=O)N1Cc2ccccc2C[C@H]1C(=O)N[C@@H](Cc1ccccc1)C(=O)N1CCOCC1)C1CCCCC1)C(C)C [AcV(Chg)R(Tic)F-CO(morpholine)] (Ac-V[Chg]R[Tic]F-Morpholide) | 0.01 to 0.1
13 | CC(=O)N[C@H](C(=O)N[C@H](C(=O)N[C@@H](CCCNC(=N)N)C(=O)N1Cc2ccccc2C[C@H]1C(=O)N[C@@H](Cc1cccc2[nH]cnc12)C(N)=O)C1CCCCC1)C(C)C [AcV(Chg)R(Tic)(4-benzimidazole)] (Ac-V[Chg]R[Tic][X2]-NH2) | 0.01 to 0.1
14 | CC(C)[C@H](NC(=O)CCN)C(=O)N[C@H](C(=O)N[C@@H](CCCNC(=N)N)C(=O)N1Cc2ccccc2C[C@H]1C(=O)N[C@@H](Cc1ccccc1)C(N)=O)C1CCCCC1 [(NH2-Beta Ala)V(Chg)R(Tic)F] (H-[βAla]V[Chg]R[Tic]F-NH2) | 0.001 to 0.01
15 | CC(=O)N[C@H](C(=O)N[C@@H](CCCNC(=N)N)C(=O)N1Cc2ccccc2C[C@H]1C(=O)NC(Cc1cccc2[nH]ccc12)C(N)=O)C1CCCCC1 (some centres unmarked) [Ac(Chg)R(Tic)-(4′-Indolyl Ala)] | 0.01 to 0.1
16 | CC(=O)N[C@H](C(=O)N[C@H](C(=O)N[C@@H](CCCNC(=N)N)C(=O)N1Cc2ccccc2C[C@H]1C(=O)NC(Cc1ccc2[nH]c3ccccc3c2c1)C(N)=O)C1CCCCC1)C(C)C (some centres unmarked) [AcV(Chg)R(Tic)-(3′-Carbazolyl Ala)] (Ac-V[Chg]R[Tic][X1]-NH2) | 0.1 to 1

Row | Molecule | IC50 [µM]
17 | CC(=O)N[C@H](C(=O)N[C@H](C(=O)N[C@@H](CCCNC(=N)N)C(=O)N1[C@H](C(=O)N[C@@H](Cc2ccccc2)C(N)=O)C[C@@H]2CCCC[C@@H]21)C1CCCCC1)C(C)C [AcV(Chg)R(Oic)F] (Ac-V[Chg]R[Oic]F-NH2) | 0.1 to 1
18 | (NH2-Beta Ala)V(Chg)(pyrimidinyl)(Tic)F | 0.01 to 0.1
19 | CNC(=O)[C@H](Cc1ccccc1)NC(=O)[C@@H]1Cc2ccccc2CN1C(=O)[C@H](CCCNC(=N)N)NC(=O)[C@@H](NC(=O)[C@@H](NC(C)=O)C(C)C)C1Cc2ccccc2C1 [AcV(Indgly)R(Tic)F-CONHMe] (Ac-V[Igl]R[Tic]F-NHMe) | 0.001 to 0.01
20 | CO[C@H](C)[C@H](NC(C)=O)C(=O)N[C@H](C(=O)N[C@@H](CCCNC(=N)N)C(=O)N1Cc2ccccc2C[C@H]1C(=O)N[C@@H](Cc1ccccc1)C(N)=O)C1CCCCC1 [Ac(T(OMe))(Chg)R(Tic)F] (Ac-T(Me)[Chg]R[Tic]F-NH2) | 0.001 to 0.01
21 | CC(=O)N[C@H](C(=O)N[C@H](C(=O)N[C@@H](CCCNC(=N)N)C(=O)N1CCCC[C@H]1C(=O)N[C@@H](Cc1ccccc1)C(N)=O)C1CCCCC1)C(C)C [AcV(Chg)R(homo Pro)F] (Ac-V[Chg]R[Pip]F-NH2) | 0.01 to 0.1
22 | CC(=O)N[C@H](C(=O)N[C@H](C(=O)N[C@@H](CCCNC(=N)N)C(=O)N1Cc2ccccc2C[C@H]1C(=O)N[C@@H](Cc1ccccc1)C(N)=O)C1CCCCC1)[C@@H](C)O [Ac(Thr)(Chg)R(Tic)F] (Ac-T[Chg]R[Tic]F-NH2) | 0.01 to 0.1
23 | CNC(=O)[C@H](Cc1ccccc1)NC(=O)[C@@H]1Cc2ccccc2CN1C(=O)[C@H](CCCNC(=N)N)NC(=O)[C@@H](NC(=O)[C@@H](NC(C)=O)C(C)C)C1CCCCC1 [AcV(Chg)R(Tic)F-CONHMe] (Ac-V[Chg]R[Tic]F-NHMe) | 0.01 to 0.1
24 | CC[C@H](N)C(=O)N[C@H](C(=O)N[C@H](C(=O)N[C@@H](CCCNC(N)=O)C(=O)N1Cc2ccccc2C[C@H]1C(=O)N[C@@H](Cc1ccccc1)C(N)=O)C1CCCCC1)C(C)C [(NH2-Abu)V(Chg)(Cit)(Tic)F] (H-[Abu]V[Chg][Cit][Tic]F-NH2) | 0.001 to 0.01
25 | CC(=O)N[C@H](C(=O)N[C@@H](CCCNC(=N)N)C(=O)N1Cc2ccccc2C[C@H]1C(=O)N[C@@H](Cc1cn(C)c2ccccc12)C(N)=O)C1CCCCC1 [Ac(Chg)R(Tic)(1-Me-Trp)] (Ac-[Chg]R[Tic][Trp(1-Me)]-NH2) | 0.1 to 1
26 | CC(=O)N[C@H](C(=O)N[C@H](C(=O)N[C@@H](CCCNC(=N)N)C(=O)N1Cc2ccccc2C[C@H]1C(=O)N[C@@H](Cc1ccccc1)C(=O)O)C1CCCCC1)C(C)C [AcV(Chg)R(Tic)F-COOH] (Ac-V[Chg]R[Tic]F-OH) | 0.01 to 0.1
27 | CC(C)[C@H](NC(=O)[C@@H](N)Cc1csc2ccccc12)C(=O)N[C@H](C(=O)N[C@@H](CCCNC(=N)N)C(=O)N1Cc2ccccc2C[C@H]1C(=O)N[C@@H](Cc1ccccc1)C(N)=O)C1CCCCC1 [(NH2-BTA)V(Chg)R(Tic)F] (H-[Bta]V[Chg]R[Tic]F-NH2) | 0.01 to 0.1
28 | CNCC(=O)N[C@H](C(=O)N[C@H](C(=O)N[C@@H](CCCNC(=N)N)C(=O)N1Cc2ccccc2C[C@H]1C(=O)N[C@@H](Cc1ccccc1)C(N)=O)C1CCCCC1)C(C)C [(NH2-Sar)V(Chg)R(Tic)F] (H-[Sar]V[Chg]R[Tic]F-NH2) | 0.001 to 0.01
29 | CC[C@H](N)C(=O)N[C@H](C(=O)N[C@H](C(=O)N[C@@H](CCCNC(=N)N)C(=O)N1Cc2ccccc2C[C@H]1C(=O)N[C@@H](Cc1ccccc1)C(N)=O)C1CCCCC1)C(C)C [(NH2-Abu)V(Chg)R(Tic)F] (H-[Abu]V[Chg]R[Tic]F-NH2) | 0.001 to 0.01
30 | CC(=O)N[C@H](C(=O)N[C@H](C(=O)N[C@@H](CCCNC(=N)N)C(=O)N1Cc2ccccc2C[C@H]1C(=O)N[C@@H](Cc1ccccc1)C(N)=O)C1Cc2ccccc2C1)C(C)C [AcV(Indgly)R(Tic)F] (Ac-V[Igl]R[Tic]F-NH2) | 0.01 to 0.1
31 | CC(=O)N[C@H](C(=O)N[C@H](C(=O)N[C@@H](CCCNC(=N)N)C(=O)N1Cc2ccccc2C[C@H]1C(=O)NCCc1cc2ccccc2[nH]1)C1CCCCC1)C(C)C [AcV(Chg)R(Tic)(2-ethylaminoindole)] (Ac-V[Chg]R[Tic]-X6) | 0.1 to 1
32 | CC(=O)N[C@H](C(=O)N[C@H](C(=O)N[C@@H](CCCNC(=N)N)C(=O)N1Cc2ccccc2C[C@H]1C(=O)N[C@@H](Cc1ccc(Cl)c(Cl)c1)C(N)=O)C1CCCCC1)C(C)C [AcV(Chg)R(Tic)(3,4-dichloro Phe)] (Ac-V[Chg]R[Tic][Phe(3,4-Cl2)]-NH2) | 0.001 to 0.01
